# *1 amine or outer side, *2 acyl side, *3 side chain or, on linkers, in order; H or OH if unused. Where a SMILES comes first, the peptide text is derived from it. [ ]: non-standard residue; d: D form. The star is where a group is joined. Benzenesulfonyl(4-OPh) = O=S(=O)(c1ccc(Oc2ccccc2)cc1)*; Benzoyl(4-OPh) = O=C(c1ccc(Oc2ccccc2)cc1)*; NMeF = CN[C@@H](Cc1ccccc1)C(=O)O; NMeGABA = CN(CCCC(=O)[*:2])[*:1]; NMeI = CC[C@H](C)[C@H](NC)C(=O)O; NMeE = CN[C@@H](CCC(=O)O)C(=O)O; NMeD = CN[C@@H](CC(=O)O)C(=O)O; NMeN = CN[C@@H](CC(N)=O)C(=O)O; NMeL = CN[C@@H](CC(C)C)C(=O)O; NMeM = CN[C@@H](CCSC)C(=O)O; NMeV = CN[C@H](C(=O)O)C(C)C; β3hP = O=C(O)C[C@@H]1CCCN1; NMeA = CN[C@@H](C)C(=O)O; Dab = NCC[C@H](N)C(=O)O; Aib = CC(C)(N)C(=O)O; Ava = NCCCCC(=O)O; GABA = NCCCC(=O)O; Sar = CNCC(=O)O
# Target: T1, MMP2 (Homo sapiens, UniProt P08253)
# T1 sequence (P08253 110-660): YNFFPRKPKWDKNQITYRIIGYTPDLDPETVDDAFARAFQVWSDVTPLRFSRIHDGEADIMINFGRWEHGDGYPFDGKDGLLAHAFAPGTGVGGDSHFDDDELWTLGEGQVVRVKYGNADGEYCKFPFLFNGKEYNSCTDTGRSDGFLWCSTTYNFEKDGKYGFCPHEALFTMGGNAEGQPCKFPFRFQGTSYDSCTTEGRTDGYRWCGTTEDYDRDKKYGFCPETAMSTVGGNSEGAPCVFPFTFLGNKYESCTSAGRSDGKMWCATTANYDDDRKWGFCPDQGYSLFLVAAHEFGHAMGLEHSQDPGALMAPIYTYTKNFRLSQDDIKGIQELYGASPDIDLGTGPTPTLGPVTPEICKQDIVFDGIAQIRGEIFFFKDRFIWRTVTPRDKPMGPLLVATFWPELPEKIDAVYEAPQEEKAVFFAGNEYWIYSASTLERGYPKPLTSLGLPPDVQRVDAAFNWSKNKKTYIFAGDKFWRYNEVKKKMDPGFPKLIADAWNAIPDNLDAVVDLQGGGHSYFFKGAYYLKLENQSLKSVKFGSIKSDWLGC
# Assay: Inhibitory effects on human MMP2 (Method 1), enzyme assay with MOCAc-Pro-Leu-Gly-Leu-A2pr(Dnp)-Ala-Arg-NH2 substrate, 96-well
# Type: biochemical
# Details: not given
# Experimental: In a reaction solution [50 mmol/L Tris-HCl (pH 7.5), 150 mmol/L NaCl, 10 mmol/L CaCl2, 0.05% Brij L23], 100 μg/mL human recombinant MMP2 enzyme and 1 mmol/L 4-Aminophenylmercuric acetate were mixed together, and reacted at 37° C. for 60 minutes. The human MMP2 activated through the reaction was poured into a 96-well microplate to reach a final concentration of 0.7 or 7 ng/mL.
row,SMILES,IC50
1,CC[C@H](C)[C@@H](C(=O)N1CCC[C@H]1CC(N)=O)N(C)C(=O)[C@H](CC(C)C)NC(=O)[C@H](CCN)NC(=O)[C@H](CC(=O)O)NC(=O)[C@H](CC(N)=O)NC(=O)CCCNC(=O)c1ccc(Oc2ccccc2)cc1 [Compound 106],0.16 nM

# Same assay, conditions: Test Example No. 1-1 (Method 1, 96-well microplate); read-out: Human MMP2, IC50
row,SMILES,IC50
1,CC[C@H](C)[C@@H](C(=O)N1CCC[C@H]1CC(N)=O)N(C)C(=O)[C@H](CC(C)C)NC(=O)[C@H](CCN)NC(=O)[C@H](CC(=O)O)NC(=O)[C@H](NC(=O)CCCCNS(=O)(=O)c1ccc(Oc2ccccc2)cc1)[C@H](C)O [Compound 85] ({Benzenesulfonyl(4-OPh)-Ava}-[dT]D[Dab]L[NMeI][β3hP]-NH2; N-terminus assumed),0.49 nM
2,CC[C@H](C)[C@@H](C(=O)N1CCC[C@H]1C(N)=O)N(C)C(=O)[C@H](CC(C)C)NC(=O)[C@H](C)NC(=O)[C@H](CC(=O)O)NC(=O)[C@H](C)N(C)C(=O)CCCNC(=O)c1ccc(Oc2ccccc2)cc1 [Compound 92] ({Benzoyl(4-OPh)-GABA}-[NMeA]DAL[NMeI]P-NH2; N-terminus assumed),0.31 nM
3,CC[C@H](C)[C@@H](C(=O)N1CCC[C@H]1C(N)=O)N(C)C(=O)[C@H](CC(C)C)NC(=O)[C@H](C)NC(=O)[C@H](CC(=O)O)NC(=O)[C@H](CC(N)=O)N(C)C(=O)CCCNC(=O)c1ccc(Oc2ccccc2)cc1 [Compound 94] ({Benzoyl(4-OPh)-GABA}-[NMeN]DAL[NMeI]P-NH2; N-terminus assumed),0.088 nM
4,CC[C@H](C)[C@@H](C(=O)NC(C)(C)C(N)=O)N(C)C(=O)[C@H](CC(C)C)NC(=O)[C@H](C)NC(=O)[C@H](CC(=O)O)NC(=O)[C@H](C)N(C)C(=O)CCCNC(=O)c1ccc(Oc2ccccc2)cc1 [Compound 96] ({Benzoyl(4-OPh)-GABA}-[NMeA]DAL[NMeI][Aib]-NH2),0.74 nM
5,CC[C@H](C)[C@@H](C(=O)NC(C)(C)C(N)=O)N(C)C(=O)[C@H](CC(C)C)NC(=O)[C@H](C)NC(=O)[C@H](CC(=O)O)NC(=O)[C@H](CC(N)=O)N(C)C(=O)CCCNC(=O)c1ccc(Oc2ccccc2)cc1 [Compound 98] ({Benzoyl(4-OPh)-GABA}-[NMeN]DAL[NMeI][Aib]-NH2; N-terminus assumed),0.27 nM
6,CC[C@H](C)[C@@H](C(=O)N1CCC[C@H]1C(N)=O)N(C)C(=O)[C@H](CC(C)C)NC(=O)[C@H](C)NC(=O)[C@H](CC(=O)O)NC(=O)[C@H](C)N(C)C(=O)CCCN(C)C(=O)c1ccc(Oc2ccccc2)cc1 [Compound 100] ({Benzoyl(4-OPh)}-[NMeGABA][NMeA]DAL[NMeI]P-NH2; N-terminus assumed),1.2 nM
7,CC[C@H](C)[C@@H](C(=O)N1CCC[C@H]1C(N)=O)N(C)C(=O)[C@H](CC(C)C)NC(=O)[C@H](C)NC(=O)[C@H](CC(=O)O)NC(=O)[C@H](CC(N)=O)N(C)C(=O)CCCN(C)C(=O)c1ccc(Oc2ccccc2)cc1 [Compound 103] ({Benzoyl(4-OPh)}-[NMeGABA][NMeN]DAL[NMeI]P-NH2; N-terminus assumed),0.67 nM
8,CC[C@H](C)[C@@H](C(=O)N1CCC[C@H]1C(N)=O)N(C)C(=O)[C@H](CC(C)C)NC(=O)[C@H](CCN)NC(=O)[C@H](CC(=O)O)NC(=O)[C@H](CC(N)=O)NC(=O)CCCNC(=O)c1ccc(Oc2ccccc2)cc1 [Compound 107] ({Benzoyl(4-OPh)-GABA}-ND[Dab]L[NMeI]P-NH2; N-terminus assumed),0.32 nM
9,CC(C)C[C@H](NC(=O)[C@H](CCN)NC(=O)[C@H](CC(=O)O)NC(=O)[C@H](CC(N)=O)NC(=O)CCCNC(=O)c1ccc(Oc2ccccc2)cc1)C(=O)N(C)[C@@H](CCC(=O)O)C(=O)N1CCC[C@H]1CC(N)=O [Compound 108] ({Benzoyl(4-OPh)-GABA}-ND[Dab]L[NMeE][β3hP]-NH2),0.19 nM
10,CC(C)C[C@H](NC(=O)[C@H](CCN)NC(=O)[C@H](CC(=O)O)NC(=O)[C@H](CC(N)=O)NC(=O)CCCNC(=O)c1ccc(Oc2ccccc2)cc1)C(=O)N(C)[C@@H](CCC(=O)O)C(=O)N1CCC[C@H]1C(N)=O [Compound 109] ({Benzoyl(4-OPh)-GABA}-ND[Dab]L[NMeE]P-NH2; N-terminus assumed),0.7 nM
11,CC[C@H](C)[C@@H](C(=O)N1CCC[C@H]1CC(N)=O)N(C)C(=O)[C@H](CC(C)C)NC(=O)[C@H](CCN)NC(=O)[C@H](CC(=O)O)NC(=O)[C@H](CC(N)=O)N(C)C(=O)CCCNC(=O)c1ccc(Oc2ccccc2)cc1 [Compound 110] ({Benzoyl(4-OPh)-GABA}-[NMeN]D[Dab]L[NMeI][β3hP]-NH2; N-terminus assumed),0.37 nM
12,CC[C@H](C)[C@@H](C(=O)N1CCC[C@H]1C(N)=O)N(C)C(=O)[C@H](CC(C)C)NC(=O)[C@H](CCN)NC(=O)[C@H](CC(=O)O)NC(=O)[C@H](CC(N)=O)N(C)C(=O)CCCNC(=O)c1ccc(Oc2ccccc2)cc1 [Compound 111] ({Benzoyl(4-OPh)-GABA}-[NMeN]D[Dab]L[NMeI]P-NH2; N-terminus assumed),0.96 nM
13,CC(C)C[C@H](NC(=O)[C@H](CCN)NC(=O)[C@H](CC(=O)O)NC(=O)[C@H](CC(N)=O)N(C)C(=O)CCCNC(=O)c1ccc(Oc2ccccc2)cc1)C(=O)N(C)[C@@H](CCC(=O)O)C(=O)N1CCC[C@H]1CC(N)=O [Compound 112] ({Benzoyl(4-OPh)-GABA}-[NMeN]D[Dab]L[NMeE][β3hP]-NH2; N-terminus assumed),0.55 nM
14,CC(C)C[C@H](NC(=O)[C@H](CCN)NC(=O)[C@H](CC(=O)O)NC(=O)[C@H](CC(N)=O)N(C)C(=O)CCCNC(=O)c1ccc(Oc2ccccc2)cc1)C(=O)N(C)[C@@H](CCC(=O)O)C(=O)N1CCC[C@H]1C(N)=O [Compound 113] ({Benzoyl(4-OPh)-GABA}-[NMeN]D[Dab]L[NMeE]P-NH2; N-terminus assumed),2.2 nM
15,CC[C@H](C)[C@@H](C(=O)N1CCC[C@H]1C(N)=O)N(C)C(=O)[C@H](CC(C)C)NC(=O)[C@H](C)NC(=O)[C@H](CC(=O)O)NC(=O)[C@@H](CC(N)=O)NC(=O)CCCNC(=O)c1ccc(Oc2ccccc2)cc1 [Compound 114] ({Benzoyl(4-OPh)-GABA}-[dN]DAL[NMeI]P-NH2; N-terminus assumed),0.072 nM
16,CC[C@H](C)[C@@H](C(=O)N1CCC[C@H]1C(N)=O)N(C)C(=O)[C@H](CC(C)C)NC(=O)[C@H](C)NC(=O)[C@H](CC(=O)O)NC(=O)CN(C)C(=O)CCCNC(=O)c1ccc(Oc2ccccc2)cc1 [Compound 115] ({Benzoyl(4-OPh)-GABA}-[Sar]DAL[NMeI]P-NH2; N-terminus assumed),0.42 nM
17,CC[C@H](C)[C@@H](C(=O)N1CCC[C@H]1C(N)=O)N(C)C(=O)[C@H](CC(C)C)NC(=O)[C@H](C)NC(=O)[C@H](CC(=O)O)NC(=O)[C@@H]1CCCN1C(=O)CCCNC(=O)c1ccc(Oc2ccccc2)cc1 [Compound 117] ({Benzoyl(4-OPh)-GABA}-PDAL[NMeI]P-NH2; N-terminus assumed),0.55 nM
18,CC[C@H](C)[C@@H](C(=O)N1CCC[C@H]1C(N)=O)N(C)C(=O)[C@H](CC(C)C)NC(=O)[C@H](C)NC(=O)[C@H](CC(=O)O)NC(=O)[C@H](C(C)C)N(C)C(=O)CCCNC(=O)c1ccc(Oc2ccccc2)cc1 [Compound 119] ({Benzoyl(4-OPh)-GABA}-[NMeV]DAL[NMeI]P-NH2; N-terminus assumed),0.17 nM
19,CC[C@H](C)[C@@H](C(=O)N1CCC[C@H]1C(N)=O)N(C)C(=O)[C@H](CC(C)C)NC(=O)[C@H](C)NC(=O)[C@H](CC(=O)O)NC(=O)[C@H](CC(C)C)N(C)C(=O)CCCNC(=O)c1ccc(Oc2ccccc2)cc1 [Compound 120] ({Benzoyl(4-OPh)-GABA}-[NMeL]DAL[NMeI]P-NH2; N-terminus assumed),0.21 nM
20,CC[C@H](C)[C@@H](C(=O)N[C@@H](CC(=O)O)C(=O)N[C@@H](C)C(=O)N[C@@H](CC(C)C)C(=O)N(C)[C@H](C(=O)N1CCC[C@H]1C(N)=O)[C@@H](C)CC)N(C)C(=O)CCCNC(=O)c1ccc(Oc2ccccc2)cc1 [Compound 121] ({Benzoyl(4-OPh)-GABA}-[NMeI]DAL[NMeI]P-NH2; N-terminus assumed),0.19 nM
21,CC[C@H](C)[C@@H](C(=O)N1CCC[C@H]1C(N)=O)N(C)C(=O)[C@H](CC(C)C)NC(=O)[C@H](C)NC(=O)[C@H](CC(=O)O)NC(=O)[C@H](CCSC)N(C)C(=O)CCCNC(=O)c1ccc(Oc2ccccc2)cc1 [Compound 122] ({Benzoyl(4-OPh)-GABA}-[NMeM]DAL[NMeI]P-NH2; N-terminus assumed),0.16 nM
22,CC[C@H](C)[C@@H](C(=O)N1CCC[C@H]1C(N)=O)N(C)C(=O)[C@H](CC(C)C)NC(=O)[C@H](C)NC(=O)[C@H](CC(=O)O)NC(=O)[C@H](Cc1ccccc1)N(C)C(=O)CCCNC(=O)c1ccc(Oc2ccccc2)cc1 [Compound 124] ({Benzoyl(4-OPh)-GABA}-[NMeF]DAL[NMeI]P-NH2; N-terminus assumed),0.31 nM
23,CC[C@H](C)[C@@H](C(=O)N1CCC[C@H]1C(N)=O)N(C)C(=O)[C@H](CC(C)C)NC(=O)[C@H](C)NC(=O)[C@H](CC(=O)O)NC(=O)[C@H](CC(=O)O)N(C)C(=O)CCCNC(=O)c1ccc(Oc2ccccc2)cc1 [Compound 125] ({Benzoyl(4-OPh)-GABA}-[NMeD]DAL[NMeI]P-NH2),0.47 nM
